From EP0339444A1, “Elaiophylin derivatives, process for their preparation and use as medicaments” (HOECHST AKTIENGESELLSCHAFT, priority 1988, dated 1989)

System: Haemunchus contortus
Assay: Anthelmintic activity in lambs artificially infected with abomasal nematodes (coproscopy up to 14 days after application, then necropsy with helminthological work-up)
Assay type: in vivo
Conditions: Lämmer 30 bis 40 kg
Source text: Die anthelminthische Wirkung der Elaiophylinderivate wurde an Lämmern mit 30 bis 40 kg Körpergewicht untersucht. Dazu wurden die Lämmer artifiziell mit Infektionsstadien von Labmagennematoden (Haemunchus contortus) infiziert. Nach Abschluß der Entwicklungszeit (Präpatenzperiode) der Nematoden erfolgte die Applikation der Elaiophylinderivate.
Durch koproskopische Untersuchungen vor und bis zu 14 Tagen nach der Applikation der Elaiophylinderivate und anschließender Sektion mit helminthologischer Aufarbeitung wurde die prozentuale Reduktion der Schaf-Nematoden ermittelt (s. Tabelle 7). Als Vergleichssubstanz diente Elaiophylin. Zusätzlich wurde auch noch die antibakterielle Aktivität der erfindungsgemäßen Elaiophylinderivate gegen Staph. aureus und Strept. pyogenes ermittelt. Überraschenderweise zeigen die erfindungsgemäßen Verbindung keine oder nur sehr geringe antibakterielle Aktivität. Gerade deshalb eignen sich die erfindungsgemäßen Verbindungen insbesondere für den Einsatz als Anthelminthika, da hier eine antibakterielle Wirkung unerwünscht ist.

| SMILES | Reduktion v. H. contortus (%) (Dosierung 5,0 mg/kg (oral)) | Reduktion v. H. contortus (%) (Dosierung 2,5 mg/kg (s.c.)) |
| --- | --- | --- |
| CCC1C(C)OC(O)(C(C)C(O)C(C)C2OC(=O)C3=NNCC3/C=C/C(C)C(C(C)C(O)C(C)C3(O)CC(OC4CC(O)C(O)C(C)O4)C(CC)C(C)O3)OC(=O)C3=NNCC3/C=C/C2C)CC1OC1CC(O)C(O)C(C)O1 (stereo not shown) [Verbindung 1] | 35-45% | – |
| CCC1C(C)OC(O)(C(C)C(O)C(C)C2OC(=O)C3=NNCC3/C=C/C(C)C(C(C)C(O)C(C)C3(O)CC(OC4CC(OC(C)=O)C(OC(C)=O)C(C)O4)C(CC)C(C)O3)OC(=O)C3=NNCC3/C=C/C2C)CC1OC1CC(OC(C)=O)C(OC(C)=O)C(C)O1 (stereo not shown) [Verbindung 2] | 40-50% | – |
| CCOC(=O)C1NN=C2C(=O)OC(C(C)C(O)C(C)C3(O)CC(OC4CC(O)C(O)C(C)O4)C(CC)C(C)O3)C(C)/C=C/C3C(=NNC3C(=O)OCC)C(=O)OC(C(C)C(O)C(C)C3(O)CC(OC4CC(O)C(O)C(C)O4)C(CC)C(C)O3)C(C)/C=C/C21 (stereo not shown) [Verbindung 6] | 50-60% | 50-60% |
